For this assay, the target named is T1, Kinase A and SpoOF (Bacillus subtilis, UniProt P16497).
T1 construct: made in house; host or cells: recombinant E. coli (overexpression)
T1 sequence (P16497 1-606): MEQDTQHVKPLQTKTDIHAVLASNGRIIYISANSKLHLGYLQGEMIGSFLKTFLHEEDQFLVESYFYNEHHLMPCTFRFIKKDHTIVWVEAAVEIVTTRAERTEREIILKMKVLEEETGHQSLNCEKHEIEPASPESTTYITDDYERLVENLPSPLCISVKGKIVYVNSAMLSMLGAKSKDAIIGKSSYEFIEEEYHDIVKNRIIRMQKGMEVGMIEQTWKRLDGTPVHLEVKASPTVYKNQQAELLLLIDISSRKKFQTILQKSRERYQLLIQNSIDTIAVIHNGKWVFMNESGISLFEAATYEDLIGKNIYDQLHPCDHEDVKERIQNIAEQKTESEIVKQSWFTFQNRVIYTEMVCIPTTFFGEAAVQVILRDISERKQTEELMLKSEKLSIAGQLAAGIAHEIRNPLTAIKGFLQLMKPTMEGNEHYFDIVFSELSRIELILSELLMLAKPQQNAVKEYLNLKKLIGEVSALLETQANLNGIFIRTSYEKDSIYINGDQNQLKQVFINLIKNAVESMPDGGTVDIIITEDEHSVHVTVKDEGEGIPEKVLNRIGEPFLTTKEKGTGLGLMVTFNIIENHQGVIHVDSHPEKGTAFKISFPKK
Put plainly: Autophosphorylation of Kinase A and Transphosphorylation of SpoOF Assay (HPK in vitro assay). In kind it is biochemical. Conditions: inhibition of KinA autophosphorylation / SpoOF transphosphorylation, inhibitor concentrations from 1 to 500 μM. How it is done: 1. Autophosphorylation of Kinase A and Transphosphorylation of SpoOF Assay
To study the effect of the compounds of the present invention on the signal transduction process in bacteria, the inhibiting effect of the compounds on the sporulation operon proteins Kinase A and SpoOF was examined. Specifically, the inhibition of autophosphorylation of Kinase A and the transphosphorylation of SpoOF was determined in the following assays. The SpoOF response regulator is the primary substrate for phosphorylation by the protein kinase, Kin A, involved in the sporulation process in bacteria. See D. Burbulys, K. A. Trach, J. A. Hoch, Cell, 64, 545-552 (1991). SpoOF and KinA were prepared from recombinant E. coli overexpressing the proteins (J. Cavanagh et al, Amino Acids, 6, 131-140 (1994) and references therein).
The following stock reagents were either prepared and used promptly or stored at the indicated temperature:
8× Salts: 2M KCl (5 mL), 1M MgCl2 (800 mL), 1M CaCl2 (100 mL), 10 mg/mL phenylmethylsulfonyl fluoride (200 mL), 1M dithioreitol (50 mL), 0.25M Na2 EDTA (32 mL) and H2 O 3.82 mL (-20° C.)
5× Loading Dye: 0.5M TRIS-HCl-pH 6.8 (7.5 mL), 10% SDS (2 mL) 0.1% bromophenol blue (0.5 mL), 100% glycerol (3 mL) and 12.5M 2-mercaptoethanol (0.3 mL)
1-1.3 mg/mL KinA:15 mM TRIS-HCl, pH 8.0, 6 mM KCl; 4 mM 2-mercaptoethanol; 40% glycerol (-20° C.)
1 mg/mL SpoOF: 17.5 mM TRIS-HCl, pH 8.0; 0.7 mM KCl; 0.7 mM MgCl2; 0.7 mM CaCl2; 5mM 2-mercaptoethanol; 30% Glycerol (-20° C.)
5% Stacking Gel: 40% 29:1 acrylamide:bis acrylamide (1.25 mL), 0.5M TRIS-HCl, pH 6.8 (2.5 mL), 10% SDS (0.1 mL), D-H2 O (6.15 mL) 10% ammonium persulfate (100 mL) and TEMED (25 mL)
SDS Running Buffer: TRIS-BASE (3.02 g), glycine (14.4 g) SDS (1 g), D-H2 O (to 1 L)
The reaction mixture was prepared from 8× Salts (87 μL), 1M TRIS, pH 8 (118 μL), 50% glycerol (63 μL), SpoOF (14.1 μL) and KinA (7.0 μL). Microcentrifuge tubes were charged with the reaction mixture (18.5 μL) and a 1.0 mM solution of the test compound in 5% DMSO (18.5 μL), and incubated for 15 min on ice. 100 mM ATP solution (3.0 μl, containing 625 μCi [^32 P]ATP) was added, and the mixture left for 10 minutes at room temperature. The reaction was quenched with 5× loading dye (10 μL per tube) and the samples were loaded on a prepared 5% Stacking Gel, or stored on dry ice until ready for use. The prepared wells were filled with SDS Running Buffer, samples were loaded into the wells, and 80 volts were applied to the gel until the dye front reached the bottom of the stacking gel. The voltage was then increased to 250 volts until electrophoresis was complete. Radioactive bands in the gel corresponding to phosphorylated KinA and SpoOF were imaged and quantitated with a phosphoimager.
If either enzyme was inhibited (as evidenced by the absence of labelled protein in the developed gel), an IC50 was calculated by running the assay with a range of inhibitor concentrations from 1 to 500 μM. After electrophoresis of the reaction mixtures, percent inhibition was determined by measuring the concentration of radioactive phosphorus with a phosphoimager and calculating the values using a software program (BioRad Molecular Analyst). IC50 values of less than 500 μM are considered active.

By IC50 is commonly meant the concentration needed to halve the response being measured. Low readings indicate inhibition by little substance, high ones a need for much substance. Take `Cl.NCCc1ccc(OCCC2Oc3cc([N+](=O)[O-])ccc3N(Cc3cccc(Cl)c3)C2=O)cc1` (centres unmarked) [Compound 82, 2-{2-[4-(2-Aminoethyl)phenoxy]ethyl}-4-(3-chlorobenzyl)-3,4-dihydro-7-nitro-3-oxo-2H-1,4-benzoxazine monohydrochloride]: the IC50 is reported as 27 µM.

`Cl.N=C(N)NCCc1ccc(OCCC2Oc3cc([N+](=O)[O-])ccc3N(Cc3cccc(Cl)c3)C2=O)cc1` (centres unmarked) [Compound 84, 3,4-Dihydro-4-(3-chlorobenzyl)-2-{2-[4-(2-guanidinoethyl)phenoxy]ethyl}-7-nitro-3-oxo-2H-1,4-benzoxazine Monohydrochloride] gave an IC50 of 30 µM.

Compound `Cl.N=C(N)NCCc1ccc(OCCC2Oc3cc([N+](=O)[O-])ccc3N(Cc3ccccc3Cl)C2=O)cc1` (centres unmarked) [Compound 87, 4-(2-Chlorobenzyl)-3,4-dihydro-2-{2-[4-(2-guanidinoethyl)phenoxy]ethyl}-7-nitro-3-oxo-2H-1,4-benzoxazine Monohydrochloride] showed an IC50 of 11 µM.

The compound `N=C(N)NCCc1ccc(OCCC2Oc3cc([N+](=O)[O-])ccc3N(Cc3cccc([N+](=O)[O-])c3)C2=O)cc1` (centres unmarked) [Compound 91, 3,4-Dihydro-2-{2-[4-(2-guanidinoethyl)phenoxy]ethyl}-7-nitro-4-(3-nitrobenzyl)-3-oxo-2H-1,4-benzoxazine] returned an IC50 of 33 µM.

In the case of `N=C(N)NCCc1ccc(OCCC2Oc3ccccc3N(Cc3cccc([N+](=O)[O-])c3)C2=O)cc1` (centres unmarked) [Compound 95, 3,4-Dihydro-2-{2-[4-(2-guanidinoethyl)phenoxy]ethyl}-4-(3-nitrobenzyl)-3-oxo-2H-1,4-benzoxazine], the IC50 amounted to 32 µM.

Regarding `N=C(N)NCCc1ccc(OCCC2Oc3cc([N+](=O)[O-])ccc3N(Cc3ccc([N+](=O)[O-])cc3)C2=O)cc1` (centres unmarked) [Compound 97, 3,4-Dihydro-2-{2-[4-(2-guanidinoethyl)phenoxy]ethyl}-7-nitro-4-(4-nitrobenzyl)-3-oxo-2H-1,4-benzoxazine], the IC50 was determined as 53 µM.

In turn, `COc1ccc2c(c1)OC(CCOc1ccc(CCNC(=NC(=O)OC(C)(C)C)NC(=O)OC(C)(C)C)cc1)C(=O)N2Cc1cccc([N+](=O)[O-])c1` (centres unmarked) [Compound 99, 2-{2-[4-(2-(N,N'-Bis-tert-butoxycarbonylguanidino)ethyl)phenoxy]ethyl}-3,4-dihydro-7-methoxy-4-(3-nitrobenzyl)-3-oxo-2H-1,4-benzoxazine] displayed an IC50 of 343 µM.

`COc1ccc2c(c1)OC(CCOc1ccc(CCNC(=N)N)cc1)C(=O)N2Cc1cccc([N+](=O)[O-])c1` (centres unmarked) [Compound 100, 3,4-Dihydro-2-{2-[4-(2-guanidinoethyl)phenoxy]ethyl}-7-methoxy-4-(3-nitrobenzyl)-3-oxo-2H-1,4-benzoxazine] registered an IC50 of 32 µM.

The compound `COC(=O)c1ccc(CN2C(=O)C(CCOc3ccc(CCN)cc3)Oc3ccccc32)cc1` (centres unmarked) [Compound 104, 2-{2-[4-(2-Aminoethyl)phenoxy]ethyl}-4-(4-carbomethoxybenzyl)-3,4-dihydro-3-oxo-2H-1,4-benzoxazine] showed an IC50 of 24 µM.

On to `COC(=O)c1cccc(CN2C(=O)C(CCOc3ccc(CCN)cc3)Oc3ccccc32)c1` (centres unmarked) [Compound 106, 2-{2-[4-(2-Aminoethyl)phenoxy]ethyl}-4-(3-carbomethoxybenzyl)-3,4-dihydro-3-oxo-2H-1,4-benzoxazine], for which the IC50 came out at 166 µM.

The compound `NCCc1ccc(OCCC2Oc3ccccc3N(Cc3ccc(C(=O)O)cc3)C2=O)cc1` (centres unmarked) [Compound 110, 4-{3,4-Dihydro-2-[2-(4-(2-aminoethyl)phenoxy)]ethyl-3-oxo-2H-1,4-benzoxazin-4-yl}methylbenzoic Acid] returned an IC50 of 324 µM.

The compound `CC(C)(C)OC(=O)NCCc1ccc(OCCC2Oc3ccccc3N(Cc3cccc(C(=O)O)c3)C2=O)cc1` (centres unmarked) [Compound 111, 3-{3,4-Dihydro-2-[2-(4-(2-(-t-butoxycarbonylamino)ethyl)phenoxy)]ethyl-3-oxo-2H-1,4-benzoxazin-4-yl}methylbenzoic Acid] returned an IC50 of 113 µM.

Take `NCCc1ccc(OCCC2Oc3ccccc3N(Cc3cccc(C(=O)O)c3)C2=O)cc1` (centres unmarked) [Compound 112, 3-{3,4-Dihydro-2-[2-(4-(2-aminoethyl)phenoxy)]ethyl-3-oxo-2H-1,4-benzoxazin-4-yl}methylbenzoic Acid]: the IC50 is on record as 254 µM.

Compound `O=C(O)CCc1cccc(OCCC2Oc3ccccc3N(Cc3cccc(Cl)c3)C2=O)c1` (centres unmarked) [Compound 127, 3-[3-[2-{4-(3-Chlorobenzyl)-3,4-dihydro-3-oxo-2H-1,4-benzoxazin-2-yl}ethoxy]phenyl]propionic Acid] registered an IC50 of 251 µM.

`O=C1NC(=O)C(c2ccc(OCCC3Oc4ccccc4N(Cc4cccc(Cl)c4)C3=O)cc2)S1` (centres unmarked) [Compound 134, 5-[4-{2-[4-(3-Chlorobenzyl)-3,4-dihydro-3-oxo-2H-1,4-benzoxazin-2-yl]ethoxy}phenyl]thiazolidine-2,4-dione] registered an IC50 of 23 µM.

Compound `N=C(N)NCCc1ccc(OCCC2Oc3ccccc3N(Cc3ccc([N+](=O)[O-])cc3)C2=O)cc1` (centres unmarked) [Compound 139, 3,4-Dihydro-2-{2-[4-(2-guanidinoethyl)-phenoxy]ethyl}-4-(4-nitrobenzyl)-3-oxo-2H-1,4-benzoxazine] gave an IC50 of 24 µM.

In turn, `COc1ccc(CN2C(=O)C(CCOc3ccc(CCNC(=NC(=O)OC(C)(C)C)NC(=O)OC(C)(C)C)cc3)Oc3ccccc32)cc1` (centres unmarked) [Compound 140, 2-{2-[4-[2-(N,N-Bis-tert-butoxycarbonylguanidino)ethyl]phenoxy]ethyl}-3,4-dihydro-4(4-methoxybenzyl)-3-oxo-2H-1,4-benzoxazine] had an IC50 of 343 µM.

Turning to `NCCCc1ccc(OCCC2Oc3ccccc3N(Cc3ccc(Cl)cc3)C2=O)cc1` (centres unmarked) [Compound 142, 2-[2-[4-(3-Aminopropyl)phenoxy]ethyl]-4-(4-chlorobenzyl)-3,4-dihydro-3-oxo-2H-1,4-benzoxazine], the IC50 was determined as 42 µM.

In turn, `CC(C)(C)OC(=O)N=C(NCCc1ccc(OCCC2Oc3cc([N+](=O)[O-])ccc3N(Cc3ccccc3[N+](=O)[O-])C2=O)cc1)NC(=O)OC(C)(C)C` (centres unmarked) [Compound 143, 2-{2-[4-(2-(N,N-Bis-tert-butoxycarbonylguanidino)ethyl)phenoxy]ethyl}-3,4-dihydro-7-nitro-4-(2-nitrobenzyl) 3-oxo-2H-1,4-benzoxazine] displayed an IC50 of 73 µM.

`CC(C)(C)OC(=O)NCCc1ccc(OCCC2Oc3ccccc3N(Cc3cccc(Cl)c3)C2=O)cc1` (centres unmarked) [Compound 144, 2-[2-[4-(2-(t-Butoxycarbonylamino)ethyl)phenoxy]ethyl]-4-(3-chlorobenzyl)-3,4-dihydro-3-oxo-2H-1,4-benzoxazine] displayed an IC50 of 348 µM.

The values are drawn from US5696117A, “Benzoxazine antimicrobial agents” (Ortho Pharmaceutical Corporation, priority 1995, dated 1997).
